Molecules are shown by their SMILES.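 Method: 48-hour compound exposure of cells in 96-well plates, five concentrations, linear interpolation of endpoints. TGI denotes the concentration required for complete inhibition of growth.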

The subject of the first assay is 786-0 renal. The assay can be described thus: growth of human tumour cells (NCI), 48 h.
The compound `COC1(OC)CCc2c(sc3ncnc(Nc4cccc(Br)c4)c23)C1` returned a TGI above 100 µM.
Compound `C=CCC(CCC(C)=O)(C(=O)OCC)C(=O)OCC` registered a TGI above 100 µM.
On the same count and under the same terms, under `CC(C)C(Cl)CCC(C)(Cl)C(=O)CBr` (stereo unspecified) stands 8.02 µM; under `Clc1ccc(C=Nc2ccc(Oc3ccc(Cl)cc3)c(Cl)c2)cc1`, 36.1 µM; under `COC(=O)[C@H](Cc1ccccc1)NC(=O)c1ccc(CNC(=O)/C=C/c2csc(-c3ccccc3)n2)cc1`, 21 µM.
The same measure, in the same setting: under `N#Cc1ccccc1OCCOc1ccccc1C#N` stands above 100 µM.
In the case of `CCN(/C=C1/C(=O)C(c2ccccc2)N(c2ccccc2)C1=O)CC` (stereo unspecified), the TGI is above 10 µM.
On the same count and under the same terms, the same measure for `CCOC(=O)c1cn(CC)c(=O)n2c1nc1ccccc12`: above 100 µM.
On the same count and under the same terms, the same measure for `Cc1cccc2sc(NC(=O)NS(=O)(=O)n3cnc4ccccc43)nc12`: above 100 µM; for `COC(=O)C1CCC(=O)N1CN(C(C)=O)c1cccc(O)c1` (stereo unspecified): above 100 µM; for `COc1ccc(-c2oc3cc(-c4cc5oc(-c6ccc(OC)cc6)c(-c6ccc(OC)cc6)c5cc4OC)c(OC)cc3c2-c2ccc(OC)cc2)cc1`: above 100 µM.
On the same count and under the same terms, the same measure for `COc1ccc2nc3c(c(N)c2c1)C1CCC3C1(C)C` (stereo unspecified): 59.2 µM; for `Oc1c(N2CCCCC2)cc(-c2cc(N3CCCCC3)c(O)c3ccccc23)c2ccccc12`: 45 µM; for `C[C@H]1CC[C@@]2(OC1)O[C@H]1C[C@H]3[C@@H]4CC[C@@H]5C[C@@H](OC6OC(CO)C(O)C(O)C6OC6OC(CO)C(O)C(O)C6O)CC[C@]5(C)[C@H]4CC[C@]3(C)[C@H]1[C@@H]2C` (stereo partly specified): 3.69 µM.
`O=C(NCCC1CNc2ccccc21)OCc1ccccc1` (stereo unspecified) came in with a TGI above 100 µM.
As to `c1cc(-c2ccc(-c3ccsc3)s2)cs1`, the TGI was above 100 µM.
The compound `Cc1cc(N(CCC#N)CCC#N)ccc1/C(N=Nc1ccccc1)=N\NC(=O)c1cc(Cl)ccc1O` had a TGI of 70.3 µM.
Still for that read-out and setting: the same measure for `Cc1ccc(S[C@@](C=O)(NC(=O)OCc2ccccc2)C(F)(F)F)cc1`: 47.5 µM; for `CCOc1cnc(C(O)(c2ccccc2)c2ccccc2)o1`: above 100 µM; for `COC(CN(C)C(=S)Nc1cccc2ccccc12)OC`: above 10 µM.
Same read-out and setting: under `CCOC(=O)C1(C/C=C\CBr)CCCC1=O` (stereo unspecified) stands above 100 µM; under `Cc1ccc(OCC2OC(n3cnc4c(Cl)nc(Nc5cc(Cl)cc(Cl)c5)nc43)CC2Oc2ccc(C)cc2)cc1` (stereo unspecified), above 100 µM; under `O=c1c(-c2ccccc2)nnc2n(Cc3ccccc3)c3ccccc3n12`, above 100 µM.

In another assay the test system is DU-145 prostate. The assay can be described thus: growth of human tumour cells (NCI), 48 h.
Consider `COC1(OC)CCc2c(sc3ncnc(Nc4cccc(Br)c4)c23)C1`, for which the TGI was determined as 53.9 µM.
The same measure, in the same setting: under `C=CCC(CCC(C)=O)(C(=O)OCC)C(=O)OCC` stands above 100 µM; under `CC(C)C(Cl)CCC(C)(Cl)C(=O)CBr` (stereo unspecified), 36.7 µM; under `Clc1ccc(C=Nc2ccc(Oc3ccc(Cl)cc3)c(Cl)c2)cc1`, above 100 µM.
For the compound `COC(=O)[C@H](Cc1ccccc1)NC(=O)c1ccc(CNC(=O)/C=C/c2csc(-c3ccccc3)n2)cc1`, the TGI was above 74.6 µM.
Regarding `N#Cc1ccccc1OCCOc1ccccc1C#N`, the TGI is above 100 µM.
The compound `CCN(/C=C1/C(=O)C(c2ccccc2)N(c2ccccc2)C1=O)CC` (stereo unspecified) had a TGI above 10 µM.
The same measure, in the same setting: under `CCOC(=O)c1cn(CC)c(=O)n2c1nc1ccccc12` stands above 100 µM; under `Cc1cccc2sc(NC(=O)NS(=O)(=O)n3cnc4ccccc43)nc12`, above 100 µM.
Same read-out and setting: the same measure for `COC(=O)C1CCC(=O)N1CN(C(C)=O)c1cccc(O)c1` (stereo unspecified): above 100 µM; for `COc1ccc(-c2oc3cc(-c4cc5oc(-c6ccc(OC)cc6)c(-c6ccc(OC)cc6)c5cc4OC)c(OC)cc3c2-c2ccc(OC)cc2)cc1`: above 100 µM.
`COc1ccc2nc3c(c(N)c2c1)C1CCC3C1(C)C` (stereo unspecified): the TGI is above 100 µM.
The same measure, in the same setting: under `Oc1c(N2CCCCC2)cc(-c2cc(N3CCCCC3)c(O)c3ccccc23)c2ccccc12` stands 49 µM.
Turning to `C[C@H]1CC[C@@]2(OC1)O[C@H]1C[C@H]3[C@@H]4CC[C@@H]5C[C@@H](OC6OC(CO)C(O)C(O)C6OC6OC(CO)C(O)C(O)C6O)CC[C@]5(C)[C@H]4CC[C@]3(C)[C@H]1[C@@H]2C` (stereo partly specified), the TGI turned out to be 4.1 µM.
Turning to `O=C(NCCC1CNc2ccccc21)OCc1ccccc1` (stereo unspecified), the TGI is above 100 µM.
In turn, `c1cc(-c2ccc(-c3ccsc3)s2)cs1` returned a TGI above 100 µM.
Compound `Cc1cc(N(CCC#N)CCC#N)ccc1/C(N=Nc1ccccc1)=N\NC(=O)c1cc(Cl)ccc1O` yielded a TGI above 100 µM.
Same read-out and setting: the same measure for `Cc1ccc(S[C@@](C=O)(NC(=O)OCc2ccccc2)C(F)(F)F)cc1`: 47.4 µM; for `CCOc1cnc(C(O)(c2ccccc2)c2ccccc2)o1`: above 100 µM; for `COC(CN(C)C(=S)Nc1cccc2ccccc12)OC`: above 10 µM.
For the compound `CCOC(=O)C1(C/C=C\CBr)CCCC1=O` (stereo unspecified), the TGI is 73.2 µM.
Same read-out and setting: the same measure for `Cc1ccc(OCC2OC(n3cnc4c(Cl)nc(Nc5cc(Cl)cc(Cl)c5)nc43)CC2Oc2ccc(C)cc2)cc1` (stereo unspecified): above 100 µM; for `O=c1c(-c2ccccc2)nnc2n(Cc3ccccc3)c3ccccc3n12`: above 100 µM.

A further assay deals with HCT-15 colon. The assay can be described thus: growth of human tumour cells (NCI), 48 h.
In the case of `COC1(OC)CCc2c(sc3ncnc(Nc4cccc(Br)c4)c23)C1`, the TGI was above 100 µM.
Same read-out and setting: under `C=CCC(CCC(C)=O)(C(=O)OCC)C(=O)OCC` stands above 100 µM; under `CC(C)C(Cl)CCC(C)(Cl)C(=O)CBr` (stereo unspecified), 10.6 µM; under `Clc1ccc(C=Nc2ccc(Oc3ccc(Cl)cc3)c(Cl)c2)cc1`, 44.2 µM.
For `COC(=O)[C@H](Cc1ccccc1)NC(=O)c1ccc(CNC(=O)/C=C/c2csc(-c3ccccc3)n2)cc1`, the TGI is above 60.4 µM.
Take `N#Cc1ccccc1OCCOc1ccccc1C#N`: the TGI was above 100 µM.
As for `CCN(/C=C1/C(=O)C(c2ccccc2)N(c2ccccc2)C1=O)CC` (stereo unspecified), the TGI was above 10 µM.
On the same count and under the same terms, under `CCOC(=O)c1cn(CC)c(=O)n2c1nc1ccccc12` stands above 100 µM.
Compound `Cc1cccc2sc(NC(=O)NS(=O)(=O)n3cnc4ccccc43)nc12` returned a TGI above 100 µM.
Still for that read-out and setting: under `COC(=O)C1CCC(=O)N1CN(C(C)=O)c1cccc(O)c1` (stereo unspecified) stands above 100 µM; under `COc1ccc(-c2oc3cc(-c4cc5oc(-c6ccc(OC)cc6)c(-c6ccc(OC)cc6)c5cc4OC)c(OC)cc3c2-c2ccc(OC)cc2)cc1`, above 100 µM; under `COc1ccc2nc3c(c(N)c2c1)C1CCC3C1(C)C` (stereo unspecified), above 100 µM.
`Oc1c(N2CCCCC2)cc(-c2cc(N3CCCCC3)c(O)c3ccccc23)c2ccccc12` returned a TGI above 100 µM.
On the same count and under the same terms, under `C[C@H]1CC[C@@]2(OC1)O[C@H]1C[C@H]3[C@@H]4CC[C@@H]5C[C@@H](OC6OC(CO)C(O)C(O)C6OC6OC(CO)C(O)C(O)C6O)CC[C@]5(C)[C@H]4CC[C@]3(C)[C@H]1[C@@H]2C` (stereo partly specified) stands 3.67 µM.
On the same count and under the same terms, the same measure for `O=C(NCCC1CNc2ccccc21)OCc1ccccc1` (stereo unspecified): above 100 µM.
On to `c1cc(-c2ccc(-c3ccsc3)s2)cs1`, for which the TGI was above 100 µM.
As to `Cc1cc(N(CCC#N)CCC#N)ccc1/C(N=Nc1ccccc1)=N\NC(=O)c1cc(Cl)ccc1O`, the TGI turned out to be 53.1 µM.
`Cc1ccc(S[C@@](C=O)(NC(=O)OCc2ccccc2)C(F)(F)F)cc1` had a TGI of 54.4 µM.
Still for that read-out and setting: under `CCOc1cnc(C(O)(c2ccccc2)c2ccccc2)o1` stands above 100 µM; under `COC(CN(C)C(=S)Nc1cccc2ccccc12)OC`, above 10 µM.

The values above are taken from PubChem BioAssay (NCI).
